Data published in ChEMBL document CHEMBL5620360, “Design, synthesis and biological evaluation of 4-(4-aminophenoxy)picolinamide derivatives as potential antitumor agents” (Eur J Med Chem, 2023).
Activity calls are given as the source filed them. The calls are words filed in the database; no cut-off is given here.

Tests used:
[1] = test system: A549; assay: Induction of apoptosis in human A549 cells assessed as late apoptotic cells at […] measured after 24 hrs by AnnexinV-FITC/PI staining based flow cytometry (reference value: 1.47%); format: functional; conditions: dose 2.5 µM
[2] = test system: A549; assay: Induction of apoptosis in human A549 cells assessed as early apoptotic cells at 5 uM measured after 24 hrs by AnnexinV-FITC/PI staining based flow cytometry (reference value: 1.26%); format: functional
[3] = test system: A549; assay: Induction of apoptosis in human A549 cells assessed as late apoptotic cells at 5 uM measured after 24 hrs by AnnexinV-FITC/PI staining based flow cytometry (reference value: 1.47%); format: functional
[4] = test system: A549; assay: Induction of apoptosis in human A549 cells assessed as necrotic cells at 5 uM measured after 24 hrs by AnnexinV-FITC/PI staining based flow cytometry (reference value: 4.01%); format: functional
[5] = test system: A549; assay: Induction of apoptosis in human A549 cells assessed as viable cells at 10 uM measured after 24 hrs by AnnexinV-FITC/PI staining based flow cytometry (reference value: 93.25%); format: functional; conditions: read-out: Activity
[6] = test system: A549; assay: Induction of apoptosis in human A549 cells assessed as necrotic cells at 10 uM measured after 24 hrs by AnnexinV-FITC/PI staining based flow cytometry (reference value: 4.01%); format: functional
[7] = test system: A549; assay: Induction of cell cycle arrest in human A549 cells assessed as accumulation of cells at G2 phase at […] incubated for 24 hrs by propidium iodide staining based flow cytometry (reference value: 7.36%); format: functional; conditions: dose 2.5 µM
[8] = test system: A549; assay: Induction of cell cycle arrest in human A549 cells assessed as accumulation of cells at G1 phase at 10 uM incubated for 24 hrs by propidium iodide staining based flow cytometry (reference value: 54.46%); format: functional
[9] = test system: A549; assay: Induction of cell cycle arrest in human A549 cells assessed as accumulation of cells at S phase at 10 uM incubated for 24 hrs by propidium iodide staining based flow cytometry (reference value: 38.18%); format: functional
[10] = AUC(0 to t) in Sprague-Dawley rat at 10 mg/kg, po by LC-MS/MS analysis; format: ADME, organism-based; conditions: in vivo
[11] = test system: A549; assay: Induction of morphological changes in human A549 cells assessed as nucleus division and dispersion at 1.1 uM measured after 12 hrs by acridine orange staining based fluorescence microscopy; format: functional, cell-based
[12] = test system: A549; assay: Induction of morphological changes in human A549 cells assessed as reduction in cell number at 1.1 uM measured after 12 hrs by acridine orange staining based fluorescence microscopy; format: functional
[13] = test system: A549; assay: Potency index, ratio of cabozantinib IC50 to test compound IC50 for antiproliferative activity against human A549 cells; format: functional
[14] = test system: A549; assay: cells; conditions: Homo sapiens, A549, 72 h
[15] = test system: MCF7; assay: cells; conditions: Homo sapiens, MCF7, 72 h

Molecule O=C(NCCCN1CCOCC1)c1cc(Oc2ccc(NC(=O)c3cn(-c4ccc(F)c(Cl)c4)c4ncccc4c3=O)cc2F)ccn1 has an Activity [1] of 2.02%, an Activity [2] of 3.02% and an Activity [3] of 4.29%. It also gave an Activity [4] of 7.49%, a viability at 10 µM [5] of 74.3% and an Activity [6] of 11.9%. The Activity [7] was 8.89%, the Activity [8] was 58.67% and the Activity [9] was 28.68%. The AUC(0-t) [10] was 3320 ng·h/mL, the Activity [11] was “Active” and the Activity [12] was “Active”. For the same molecule, the “Ratio IC50” value [13] was 2.4, the IC50 [14] was 260 nM and the IC50 [15] was 2350 nM.
